# Read-outs that look alike come from different tables or passages of the source.
# Tests used:
# [1] = system: T-Rex 293 cell line SC3 cells having increased expression of androgen receptor protein due to exposure to doxycycline; assay: Cellular growth inhibition assay, T-Rex 293 SC3 cells with doxycycline (CellTiter-Glo, 72 hours); format: cell-based; conditions: T-Rex 293 SC3 cells with increased androgen receptor expression due to doxycycline (10 ng/mL)
# Outline: (§1)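 Doxycycline (10 ng/mL) was either included or omitted to toggle wild-type androgen receptor expression in SC3 cells, a T-Rex 293 clone, grown in stripped-serum, phenol red-free medium. After 72 hours with compound, viable cells were quantified by CellTiter-Glo 2.0.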
# [2] = system: T-Rex 293 cell line SC3 cells lacking increased expression of androgen receptor protein; assay: Cellular growth inhibition assay, T-Rex 293 SC3 cells without doxycycline (CellTiter-Glo, 72 hours); format: cell-based; conditions: T-Rex 293 cell line SC3 cells not exposed to doxycycline (lacking increased androgen receptor expression)
# Outline: as §1
# [3] = system: VCaP cells; assay: Cellular growth inhibition assay for VCaP cells (CellTiter-Glo, 72 hours); format: cell-based, human
# Outline: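 Luminescent viability signal after 72 h of compound exposure gave GI50 values by four-parameter nonlinear regression. Compounds were added in 0.5% DMSO to cells plated 24 h earlier at 5000/well in DMEM containing 10% FBS.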
# [4] = system: T47D cells; assay: Cellular growth inhibition assay for T47D cells (CellTiter-Glo, 72 hours); format: cell-based, human; conditions: 72 hours treatment
# Outline: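 Growth inhibition as GI50, fitted with four parameters to CellTiter-Glo luminescence after 72 h of compound exposure (0.5% DMSO). Cells were T47D, grown in insulin-supplemented (0.2 units/mL) DMEM with 10% FBS and treated one day post-seeding.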
"GI50 ([3]; Homo sapiens, VCaP, 72 h) [nM]","GI50 ([4]; Homo sapiens, T47D, 72 h) [nM]",GI50 [3] [nM],GI50 [4] [nM],SMILES,GI50 ([1]; 72 h) [nM],GI50 ([2]; 72 h) [nM],GI50 [1] [nM],GI50 [2] [nM]
< 500,< 500,,,Cc1sc2c(c1C)C(c1ccc(OC[C@H]3C[C@]4(CCCN(c5ccc(C(=O)N[C@H]6CC[C@H](Oc7ccc(C#N)c(Cl)c7)CC6)nn5)C4)C3)nc1)=N[C@@H](Cc1ncco1)c1nnc(C)n1-2 [I-262],< 500,> 3000,,
> 3000,> 3000,,,Cc1sc2c(c1C)C(c1ccc(C(=O)N3CCC[C@@H](Cc4ccc(C(=O)N[C@H]5CC[C@H](Oc6ccc(C#N)c(Cl)c6)CC5)nn4)C3)cc1)=N[C@H](Cc1ncco1)c1nnc(C)n1-2 [I-275],< 500,> 3000,,
> 3000,> 3000,,,Cc1sc2c(c1C)C(c1ccc(C(=O)N3CCN(C(=O)c4ccc(C(=O)N[C@H]5CC[C@H](Oc6ccc(C#N)c(Cl)c6)CC5)nn4)CC3)cc1)=N[C@@H](Cc1ncco1)c1nnc(C)n1-2 [I-238],> 3000,> 3000,,
1500 to 3000,> 3000,,,Cc1sc2c(c1C)C(c1ccc(O[C@H]3CCCN(c4ccc(C(=O)N[C@H]5CC[C@H](Oc6ccc(C#N)c(Cl)c6)CC5)nn4)C3)cc1)=N[C@@H](Cc1ncco1)c1nnc(C)n1-2 [I-217],< 500,< 500,,
< 500,< 500,,,Cc1sc2c(c1C)C(c1ccc(O[C@@H]3CC[C@@]4(CCCN(c5ccc(C(=O)N[C@H]6CC[C@H](Oc7ccc(C#N)c(Cl)c7)CC6)nn5)C4)C3)cn1)=N[C@@H](Cc1ncco1)c1nnc(C)n1-2 [I-362],< 500,< 500,,
,,< 500,< 500,Cc1sc2c(c1C)C(c1ccc(-c3coc(C4CCN(c5ccc(C(=O)N[C@H]6CC[C@H](Oc7ccc(C#N)c(Cl)c7)CC6)nn5)CC4)n3)cc1)=NC(Cc1ncco1)c1nnc(C)n1-2 (stereo partly drawn) [I-442],,,< 500,< 500
> 3000,> 3000,,,Cc1sc2c(c1C)C(c1ccc(N3CCC[C@H](C(=O)N4CCC[C@@H](c5ccc(C(=O)N[C@H]6CC[C@H](Oc7ccc(C#N)c(Cl)c7)CC6)nn5)C4)C3)cc1)=N[C@H](Cc1ncco1)c1nnc(C)n1-2 [I-304],> 3000,> 3000,,
,,500 to 1500,500 to 1500,Cc1sc2c(c1C)C(c1ccc(CCC3CC4(CCCC(c5ccc(C(=O)N[C@H]6CC[C@H](Oc7ccc(C#N)c(Cl)c7)CC6)nn5)C4)C3)nc1)=N[C@@H](Cc1ncco1)c1nnc(C)n1-2 (stereo partly drawn) [I-439],,,< 500,< 500
< 500,500 to 1500,,,CCNC(=O)C[C@@H]1N=C(c2ccc(N3CCC(N(C)C4CCN(c5ccc(C(=O)N[C@H]6CC[C@H](Oc7ccc(C#N)c(Cl)c7)CC6)nn5)CC4)CC3)cc2)c2c(sc(C)c2C)-n2c(C)nnc21 [I-43],< 500,1500 to 3000,,
< 500,< 500,,,Cc1sc2c(c1C)C(c1ccc(CC[C@H]3CC[C@@]4(CCCN(c5ccc(C(=O)N[C@H]6CC[C@H](Oc7ccc(C#N)c(Cl)c7)CC6)nn5)C4)C3)cc1)=N[C@H](Cc1ncco1)c1nnc(C)n1-2 [I-215],< 500,< 500,,
< 500,< 500,,,Cc1sc2c(c1C)C(c1ccc(OC3CC4(C3)CN(c3ccc(C(=O)N[C@H]5CC[C@H](Oc6ccc(C#N)c(Cl)c6)CC5)nn3)C4)cc1)=N[C@@H](Cc1ncco1)c1nnc(C)n1-2 [I-91],< 500,< 500,,
> 3000,1500 to 3000,,,Cc1sc2c(c1C)C(c1ccc(C(=O)N3CCC(N(C)c4ccc(C(=O)N[C@H]5CC[C@H](Oc6ccc(C#N)c(Cl)c6)CC5)nn4)CC3)cc1)=N[C@@H](Cc1ncco1)c1nnc(C)n1-2 [I-306],> 3000,> 3000,,
< 500,< 500,,,Cc1sc2c(c1C)C(c1ccc(N3CCN(C(=O)c4ccc(C(=O)N[C@H]5CC[C@H](Oc6ccc(C#N)c(Cl)c6)CC5)nn4)CC3)cc1)=N[C@H](Cc1ncco1)c1nnc(C)n1-2 [I-251],< 500,500 to 1500,,
> 3000,> 3000,,,Cc1sc2c(c1C)C(c1ccc([C@@H]3CCN(C(=O)[C@H]4CCCN(c5ccc(C(=O)N[C@H]6CC[C@H](Oc7ccc(C#N)c(Cl)c7)CC6)nn5)C4)C3)cc1)=N[C@@H](Cc1ncco1)c1nnc(C)n1-2 [I-344],> 3000,> 3000,,
< 500,< 500,,,Cc1sc2c(c1C)C(c1ccc(CCN3CCOC4(CCN(c5ccc(C(=O)N[C@H]6CC[C@H](Oc7ccc(C#N)c(Cl)c7)CC6)nn5)CC4)C3)cc1)=N[C@@H](Cc1ncco1)c1nnc(C)n1-2 [I-222],< 500,500 to 1500,,
500 to 1500,1500 to 3000,,,Cc1sc2c(c1C)C(c1ccc(CNC(=O)[C@@H]3CCCN(c4ccc(C(=O)N[C@H]5CC[C@H](Oc6ccc(C#N)c(Cl)c6)CC5)nn4)C3)cc1)=N[C@@H](Cc1ncco1)c1nnc(C)n1-2 [I-230],< 500,500 to 1500,,
< 500,< 500,,,Cc1sc2c(c1C)C(c1ccc(CCCN(C)C(=O)c3ccc(C(=O)N[C@H]4CC[C@H](Oc5ccc(C#N)c(Cl)c5)CC4)nn3)cc1)=N[C@@H](Cc1ncco1)c1nnc(C)n1-2 [I-305],< 500,< 500,,
< 500,< 500,,,Cc1sc2c(c1C)C(c1ccc(OC3CC4(CCN(c5ccc(C(=O)N[C@H]6CC[C@H](Oc7ccc(C#N)c(Cl)c7)CC6)cn5)CC4)C3)cc1)=N[C@@H](Cc1ncco1)c1nnc(C)n1-2 [I-88],< 500,< 500,,
500 to 1500,500 to 1500,,,Cc1sc2c(c1C)C(c1ccc(O[C@H]3C[C@@]4(CCCN(c5ccc(C(=O)N[C@H]6CC[C@H](Oc7ccc(C#N)c(Cl)c7)CC6)nn5)C4)C3)cc1)=N[C@@H](C)c1nnc(C)n1-2 [I-349],< 500,> 3000,,
< 500,< 500,,,Cc1sc2c(c1C)C(c1ccc(OC3CC4(CCN(c5ccc(C(=O)N[C@H]6CC[C@H](Oc7ccc(C#N)c(Cl)c7)CC6)nn5)CC4)C3)cc1)=N[C@@H](Cc1ncco1)c1nnc(C)n1-2 [I-79],< 500,< 500,,
< 500,500 to 1500,,,Cc1sc2c(c1C)C(c1ccc(N3CC(C4CCN(c5ccc(C(=O)N[C@H]6CC[C@H](Oc7ccc(C#N)c(Cl)c7)CC6)nn5)CC4)C3)cc1)=N[C@@H](C)c1nnc(C)n1-2 [I-434],< 500,< 500,,
< 500,> 3000,,,Cc1sc2c(c1C)C(c1ccc([C@H]3C[C@H]([C@H]4CCCN(c5ccc(C(=O)N[C@H]6CC[C@H](Oc7ccc(C#N)c(Cl)c7)CC6)nn5)C4)C3)cc1)=N[C@@H](Cc1ncco1)c1nnc(C)n1-2 [I-375],< 500,> 3000,,
> 3000,> 3000,,,Cc1sc2c(c1C)C(c1ccc([C@H]3CC[C@@H](N4CCCN(c5ccc(C(=O)N[C@H]6CC[C@H](Oc7ccc(C#N)c(Cl)c7)CC6)nn5)CC4)CC3)cc1)=N[C@@H](Cc1ncco1)c1nnc(C)n1-2 [I-244],< 500,> 3000,,
< 500,< 500,,,Cc1sc2c(c1C)C(c1ccc(C3CN(C4CCN(c5ccc(C(=O)N[C@H]6CC[C@H](Oc7ccc(C#N)c(Cl)c7)CC6)nn5)CC4)C3)cc1)=N[C@@H](Cc1ncco1)c1nnc(C)n1-2 [I-212],< 500,< 500,,
,,< 500,> 3000,Cc1sc2c(c1C)C(c1ccc(N3CCC4(CCCN(c5ccc(C(=O)N[C@H]6CC[C@H](Oc7ccc(C#N)c(Cl)c7)CC6)nn5)C4)CC3)cc1)=N[C@@H](C)c1nnc(C)n1-2 [I-429],,,< 500,> 3000
,,> 3000,1500 to 3000,Cc1sc2c(c1C)C(c1ccc(CC[C@H]3C[C@]4(CCCN(c5ccc(C(=O)N[C@H]6CC[C@H](Oc7ccc(C#N)c(Cl)c7)CC6)nn5)C4)C3)cc1)=N[C@@H](C)c1nnc(C)n1-2 [I-327],,,< 500,> 3000
< 500,,,500 to 1500,Cc1sc2c(c1C)C(c1ccc(N3CCC4(CCCN(c5ccc(C(=O)N[C@H]6CC[C@H](Oc7ccc(C#N)c(Cl)c7)CC6)nn5)C4)CC3)cc1)=N[C@@H](C)c1nnc(C)n1-2 [I-427],< 500,,,500 to 1500
< 500,< 500,,,Cc1sc2c(c1C)C(c1ccc([C@@H]3C[C@H]3C3CC4(CCN(c5ccc(C(=O)N[C@H]6CC[C@H](Oc7ccc(C#N)c(Cl)c7)CC6)nn5)CC4)C3)cc1)=N[C@@H](Cc1ncco1)c1nnc(C)n1-2 [I-201],< 500,> 3000,,
500 to 1500,500 to 1500,,,Cc1sc2c(c1C)C(c1ccc(CNC(=O)CN(C)c3ccc(C(=O)N[C@H]4CC[C@H](Oc5ccc(C#N)c(Cl)c5)CC4)nn3)cc1)=N[C@@H](Cc1ncco1)c1nnc(C)n1-2 [I-243],< 500,500 to 1500,,
< 500,< 500,,,Cc1sc2c(c1C)C(c1ccc(O[C@H]3C[C@H](OC4CCN(c5ccc(C(=O)N[C@H]6CC[C@H](Oc7ccc(C#N)c(Cl)c7)CC6)nn5)CC4)C3)cc1)=N[C@@H](Cc1ncco1)c1nnc(C)n1-2 [I-90],< 500,< 500,,
